Experiments:
E. cloacae P99 [1] = assay: MIC of compound alone, broth microdilution; type: cell-based; details: strain P99; compound alone
Outline: (§1)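 Growth inhibition was scored by eye after 16-20 h at 35° C (room air), with bacteria from log phase seeded at 5×10^5 cfu/mL final in cation-adjusted Mueller-Hinton medium.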

E. coli 190317 [2] = assay: MIC of compound alone, broth microdilution; type: cell-based; details: strain 190317; compound alone
Outline: as §1

K. pneumoniae 6299 [3] = assay: MIC of compound alone, broth microdilution; type: cell-based; details: strain 6299; compound alone
Outline: as §1

K. pneumoniae BAA-1898 [4] = assay: MIC of compound alone, broth microdilution; type: cell-based; details: strain BAA-1898; compound alone
Outline: as §1

P. aeruginosa CIP107051 [5] = assay: MIC of compound alone, broth microdilution; type: cell-based; details: strain CIP107051; compound alone
Outline: as §1

E. cloacae P99 [6] = assay: MIC of ceftazidime (CAZ) at fixed concentration of compound (synergy), broth microdilution; type: cell-based; details: strain P99; MIC of CAZ, compound fixed at 4 μg/mL
Procedure: (§2) Log phase bacterial suspensions were adjusted to a final density of 5×10^5 cfu/mL in cation-adjusted Mueller-Hinton broth (Becton-Dickinson) and added to each well (98 μL). Microplates were incubated for 16-20 h at 35° C. in ambient air. The MIC of the compounds was defined as the lowest concentration of said compounds that prevented bacterial growth as read by visual inspection.

E. coli 190317 [7] = assay: as above; type: cell-based; details: strain 190317; MIC of CAZ, compound fixed at 4 μg/mL
Procedure: as §2

K. pneumoniae 6299 [8] = assay: as above; type: cell-based; details: strain 6299; MIC of CAZ, compound fixed at 4 μg/mL
Procedure: as §2

K. pneumoniae BAA-1898 [9] = assay: as above; type: cell-based; details: strain BAA-1898; MIC of CAZ, compound fixed at 4 μg/mL
Procedure: as §2

P. aeruginosa CIP107051 [10] = assay: as above; type: cell-based; details: strain CIP107051; MIC of CAZ, compound fixed at 4 μg/mL
Procedure: as §2

AmpC (P99) = AmpC (P99) (Enterobacter cloacae, UniProt P05364); details: read-out: IC50 β-lactamase AmpC (P99); class (C); nitrocefin 200 μM, 30-min pre-incubation, enzyme 0.2 nM
CMY-37 = CMY-37 (Citrobacter freundii, UniProt P05193); details: read-out: IC50 β-lactamase CMY-37; class (C); nitrocefin 200 μM, 30-min pre-incubation, enzyme 0.2 nM
AmpC (PAE) = AmpC (PAE) (Pseudomonas aeruginosa, UniProt P24735); details: read-out: IC50 β-lactamase AmpC (PAE); class (C); nitrocefin 200 μM, 30-min pre-incubation, enzyme 0.4 nM
OXA-15 = OXA-15 (Pseudomonas aeruginosa, UniProt Q51574); details: read-out: IC50 β-lactamase OXA-15; class (D); nitrocefin 200 μM, 30-min pre-incubation, enzyme 0.4 nM
TEM-1 = TEM-1 (Escherichia coli, UniProt P62593); details: read-out: IC50 β-lactamase TEM-1; class (A); nitrocefin 200 μM, 30-min pre-incubation, enzyme 0.1 nM
SHV-1 = SHV-1 (Klebsiella pneumoniae, UniProt P0AD64); details: read-out: IC50 β-lactamase SHV-1; class (A); nitrocefin 200 μM, 30-min pre-incubation, enzyme 0.075 nM
CTX-M-15 = CTX-M-15 (Escherichia coli, UniProt Q9EXV5); details: read-out: IC50 β-lactamase CTX-M-15; class (A); nitrocefin 200 μM, 30-min pre-incubation, enzyme 0.4 nM
KPC-2 = KPC-2 (Klebsiella pneumoniae, UniProt Q9F663); details: read-out: IC50 β-lactamase KPC-2; class (A); nitrocefin 200 μM, 30-min pre-incubation, enzyme 1 nM
OXA-1 = OXA-1 (Escherichia coli, UniProt P13661); details: read-out: IC50 β-lactamase OXA-1; class (D); nitrocefin 200 μM, 30-min pre-incubation, enzyme 0.2 nM
OXA-11 = OXA-11 (Pseudomonas aeruginosa, UniProt Q06778); details: read-out: IC50 β-lactamase OXA-11; class (D); nitrocefin 200 μM, 30-min pre-incubation, enzyme 1.2 nM
OXA-48 = OXA-48 (Klebsiella pneumoniae, UniProt Q6XEC0); details: read-out: IC50 β-lactamase OXA-48; class (D); nitrocefin 200 μM, 30-min pre-incubation, enzyme 0.3 nM

| Structure (SMILES) | MIC compounds of the invention alone (E. cloacae P99 [1]) [µg/mL] | MIC compounds of the invention alone (E. coli 190317 [2]) [µg/mL] | MIC compounds of the invention alone (K. pneumoniae 6299 [3]) [µg/mL] | MIC compounds of the invention alone (K. pneumoniae BAA-1898 [4]) [µg/mL] | MIC compounds of the invention alone (P. aeruginosa CIP107051 [5]) [µg/mL] | MIC combination of CAZ and compounds of the invention at 4 μg/mL (E. cloacae P99 [6]) [µg/mL] | MIC combination of CAZ and compounds of the invention at 4 μg/mL (E. coli 190317 [7]) [µg/mL] | MIC combination of CAZ and compounds of the invention at 4 μg/mL (K. pneumoniae 6299 [8]) [µg/mL] | MIC combination of CAZ and compounds of the invention at 4 μg/mL (K. pneumoniae BAA-1898 [9]) [µg/mL] | MIC combination of CAZ and compounds of the invention at 4 μg/mL (P. aeruginosa CIP107051 [10]) [µg/mL] | IC50 (AmpC (P99)) [nM] | IC50 (CMY-37) [nM] | IC50 (AmpC (PAE)) [nM] | IC50 (OXA-15) [nM] | IC50 (TEM-1) [nM] | IC50 (SHV-1) [nM] | IC50 (CTX-M-15) [nM] | IC50 (KPC-2) [nM] | IC50 (OXA-1) [nM] | IC50 (OXA-11) [nM] | also measured |
| --- | --- | --- | --- | --- | --- | --- | --- | --- | --- | --- | --- | --- | --- | --- | --- | --- | --- | --- | --- | --- | --- |
| C/C(=N/O)c1cnn(C2=CC3CN(C2)C(=O)N3OS(=O)(=O)[O-])c1.[Na+] (stereo not drawn) [Example 39, sodium [3-[4-[(Z,E)-N-hydroxy-C-methyl-carbonimidoyl]pyrazol-1-yl]-7-oxo-1,6-diazabicyclo[3.2.1]oct-3-en-6-yl]sulfate] | >32 | >32 | >32 | >32 | >32 | 16 | 1 | 16 | 128 | 8 | 9.5 | 8.1 | 82 | 8.5 | 0.21 | 1.3 | 0.56 | 4.1 | 150 | 73 | IC50 (OXA-48): 1.8 nM |
| NCCONC(=O)c1cnn(C2=CC3CN(C2)C(=O)N3OS(=O)(=O)[O-])c1.O=C(O)C(F)(F)F.[Na+] (stereo not drawn) [Example 24, sodium and 2,2,2-trifluoroacetate [7-oxo-3-[4-carboxamide,N-(2-ammoniumethoxy)-pyrazol-1-yl]-1,6-diazabicyclo[3.2.1]oct-3-en-6-yl]sulfate] | 16 | 2 | >32 | >32 | >32 | 0.25 | <0.25 | 0.25 | 1 | 4 | 12 | 16 | 160 | 48 | 0.37 | 2.4 | 0.75 | 5.2 | 76 | 95 | IC50 (OXA-48): 4.6 nM |
| NC(=O)c1nn(C2=CC3CN(C2)C(=O)N3OS(=O)(=O)[O-])cc1F.[Na+] (stereo not drawn) [Example 26, sodium (7-oxo-3-(3-carboxamide-4-fluoro-pyrazol-1-yl)-1,6-diazabicyclo[3.2.1]oct-3-en-6-yl) sulfate] | 16 | 4 | 16 | 16 | >32 | 1 | <0.25 | ≤0.25 | 0.5 | 4 | 14 | 36 | 130 | 13 | 0.23 | 1.2 | 0.72 | 3.2 | 33 | 9.8 | IC50 (OXA-48): 7.8 nM |

Source: US10722520B2, “Heterocyclic compounds and their use in preventing or treating bacterial infections” (MUTABILIS, priority 2016, dated 2020)
